Target: SMYD3 (Homo sapiens (Human), UniProt Q9H7B4)
Assay: SMYD3 biochemical assay (SMYD3 enzyme assay on MEKK2 protein substrate, scintillation proximity assay)
Conditions: 3H-SAM, SPA, IC50 values are an average of n = 1 to n = 50, read-out: SMYD3 Biochem IC50
Source text: S-adenosylmethionine (SAM), S-adenosylhomocysteine (SAH), Tris, Tween20, dimethylsulfoxide (DMSO), bovine skin gelatin (BSG), and Tris(2-carboxyethyl)phosphine hydrochloride solution (TCEP) were purchased from Sigma-Aldrich at the highest level of purity possible. ^3H-SAM was purchase from American Radiolabeled Chemicals with a specific activity of 80 Ci/mmol. 384-well opaque white OptiPlates and SPA beads (Perkin Elmer, catalog # RPNQ0013) were purchased from PerkinElmer.
N-terminally GST-tagged MEKK2 (MAP3K2) protein corresponding to reference sequence AAF63496.3 was purchased from Life Technologies (catalog # PV4010). […] Protein identity was confirmed by MS/MS analysis after proteolytic digestion. The protein sequence used was:
Full-length human SMYD3 isoform 1 (BAB86333) was inserted into a modified pET21b plasmid containing a His6 tag and TEV and SUMO cleavage sites. Because two common variants of SMYD3 exist in the population, site directed mutagenesis was subsequently performed to change amino acid 13 from an asparagine to a lysine, resulting in plasmid pEPZ533.
E. coli (BL21 codonplus RIL strain, Stratagene) were transformed with plasmid pEPZ553 by mixing competent cells and plasmid DNA and incubating on ice for 30minutes followed by heat shock at 42° C. for 1 minute and cooling on ice for 2 minutes. Transformed cells were grown and selected on LB agar with 100 μg/mL ampicillin and 17 μg/mL chloramphenicol at 37° C. overnight. A single clone was used to inoculate 200 mL of LB medium with 100 μg/mL ampicillin and 17 μg/mL chloramphenicol and incubated at 37° C. on an orbital shaker at 180 rpm. Once in log growth, the culture was diluted 1:100 into 2 L of LB medium and grown until OD600 was about 0.3 after which the culture was incubated at 15° C. and 160 rpm. Once OD600 reached about 0.4, IPTG was added to a final concentration of 0.1 mM and the cells were grown overnight at 15° C. and 160 rpm. Cells were harvested by centrifugation at 8000 rpm, for 4 minutes at 4° C. and stored at −80° C. for purification.
The column was washed with Buffer B (Buffer A plus 20 mM imidazole) and His-tagged SMYD3 was eluted with Buffer C (Buffer A plus 300 mM imidazole). The His tag, TEV and SUMO cleavage sites were removed generating native SMYD3 by addition of ULP1 protein at a ratio of 1:200 (ULP1:SMYD3). Imidazole was removed by dialysis overnight in Buffer A. The dialyzed solution was applied to a second Nickel column and the native SMYD3 protein was collected from the column flow-through. The flow-through was dialyzed in Buffer D (25 mM Tris, 5% glycerol, 5 mM β-mercaptoethanol, 50 mM NaCl, pH7.8) and ULP1 was removed using a Q sepharose fast flow column.
General Procedure for SMYD3 Enzyme Assays on MEKK2 Protein Substrate
The assays were all performed in a buffer consisting of 25 mM Tris-Cl pH 8.0, 1 mM TCEP, 0.005% BSG, and 0.005% Tween 20, prepared on the day of use. Compounds in 100% DMSO (1 ul) were spotted into a 384-well white opaque OptiPlate using a Bravo automated liquid handling platform outfitted with a 384-channel head (Agilent Technologies). DMSO (1 ul) was added to Columns 11, 12, 23, 24, rows A-H for the maximum signal control and 1 ul of SAH, a known product and inhibitor of SMYD3, was added to columns 11, 12, 23, 24, rows I-P for the minimum signal control. A cocktail (40 ul) containing the SMYD3 enzyme was added by Multidrop Combi (Thermo-Fisher). The compounds were allowed to incubate with SMYD3 for 30 min at room temperature, then a cocktail (10 ul) containing SAM and MEKK2 was added to initiate the reaction (final volume=51 ul).

SMYD3, sequence (Q9H7B4 whole entry): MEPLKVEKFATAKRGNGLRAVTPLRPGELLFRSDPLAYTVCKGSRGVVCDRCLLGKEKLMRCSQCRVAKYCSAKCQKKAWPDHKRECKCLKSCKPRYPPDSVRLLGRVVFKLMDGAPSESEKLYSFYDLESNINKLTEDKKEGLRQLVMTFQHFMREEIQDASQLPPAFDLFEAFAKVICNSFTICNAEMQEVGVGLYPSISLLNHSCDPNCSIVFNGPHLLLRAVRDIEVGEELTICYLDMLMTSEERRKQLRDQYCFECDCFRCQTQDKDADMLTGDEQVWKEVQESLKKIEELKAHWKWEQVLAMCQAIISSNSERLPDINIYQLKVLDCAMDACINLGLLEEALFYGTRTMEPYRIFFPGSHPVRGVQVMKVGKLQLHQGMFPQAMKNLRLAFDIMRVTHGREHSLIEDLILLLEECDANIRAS

IC50	Compound
9.69 µM	COCCN(C(=O)c1cc(C2CC2)on1)[C@H]1CC[C@H](NC(=O)C[C@@H](C)N)CC1 [compound 40, N-((1R,4r)-4-((R)-3-aminobutanamido)cyclohexyl)-5-cyclopropyl-N-(2-methoxyethyl)isoxazole-3-carboxamide]
5.71 µM	C[C@@H](N)CC(=O)N[C@H]1CC[C@H](N(CCc2ccccc2)C(=O)c2cc(C3CC3)on2)CC1 [compound 41, N-((1R,4r)-4-((R)-3-aminobutanamido)cyclohexyl)-5-cyclopropyl-N-phenethylisoxazole-3-carboxamide]
10.8 µM	NCCC(=O)N[C@H]1CC[C@H](N(CCc2ccccc2)C(=O)c2cc(C3CC3)on2)CC1 [compound 42, N-((1r,4r)-4-(3-aminopropanamido)cyclohexyl)-5-cyclopropyl-N-phenethylisoxazole-3-carboxamide]
4.49 µM	CC(C)CN(C(=O)c1cc(C2CC2)on1)[C@H]1CC[C@H](NC(=O)CCN)CC1 [compound 43, N-((1r,4r)-4-(3-aminopropanamido)cyclohcxyl)-5-cyclopropyl-N-isobutylisoxazole-3-carboxamide]
16.4 µM	COCCN(C(=O)c1cc(C2CC2)on1)[C@H]1CC[C@H](NC(=O)CCN)CC1 [compound 44, N-((1r,4r)-4-(3-aminopropanamido)cyclohexyl)-5-cyclopropyl-N-(2-methoxyethyl)isoxazole-3-carboxamide]
8.22 µM	C[C@@H](N)CC(=O)N[C@H]1CC[C@H](N(Cc2ccccc2)C(=O)c2cc(C3CC3)on2)CC1 [compound 45, N-((1R,4r)-4-((R)-3-aminobutanamido)cyclohexyl)-N-benzyl-5-cyclopropylisoxazole-3-carboxamide]
4.34 µM	NCCC(=O)N[C@H]1CC[C@H](N(Cc2ccccc2)C(=O)c2cc(C3CC3)on2)CC1 [compound 46, N-((1r,4r)-4-(3-aminopropanamido)cyclohexyl)-N-benzyl-5-cyclopropylisoxazole-3-carboxamide]
3.12 µM	CC(C)CN(C(=O)c1cc(C2CC2)on1)[C@H]1CC[C@H](NC(=O)C[C@@H](C)N)CC1 [compound 47, N-((1R,4r)-4-((R)-3-aminobutanamido)cyclohexyl)-5-cyclopropyl-N-isobutylisoxazole-3-carboxamide]
3.8 µM	CC(C)CN(C(=O)c1cc(C2CC2)on1)[C@H]1CC[C@H](NC(=O)C[C@H](C)N)CC1 [compound 48, N-((1S,4r)-4-((S)-3-aminobutanamido)cyclohexyl)-5-cyclopropyl-N-isobutylisoxazole-3-carboxamide]
19 µM	COCCN(C(=O)c1cc(C2CC2)on1)[C@H]1CC[C@H](NC(=O)C[C@H](C)N)CC1 [compound 49, N-((1S,4r)-4-((S)-3-aminobutanamido)cyclohexyl)-5-cyclopropyl-N-(2-methoxyethyl)isoxazole-3-carboxamide]
14.5 µM	C[C@@H](N)CC(=O)N[C@H]1CC[C@H](N(CCO)C(=O)c2cc(C3CC3)on2)CC1 [compound 50, N-((1R,4r)-4-((R)-3-aminobutanamido)cyclohexyl)-5-cyclopropyl-N-(2-hydroxyethyl)isoxazole-3-carboxamide]
13.8 µM	C[C@H](N)CC(=O)N[C@H]1CC[C@H](N(CCO)C(=O)c2cc(C3CC3)on2)CC1 [compound 51, N-((1S,4r)-4-((S)-3-aminobutanamido)cyclohexyl)-5-cyclopropyl-N-(2-hydroxyethyl)isoxazole-3-carboxamide]
16.8 µM	NCCC(=O)N[C@H]1CC[C@H](N(CCO)C(=O)c2cc(C3CC3)on2)CC1 [compound 52, N-((1r,4r)-4-(3-aminopropanamido)cyclohexyl)-5-cyclopropyl-N-(2-hydroxyethyl)isoxazole-3-carboxamide]
19.7 µM	C[C@H](N)CC(=O)N[C@H]1CC[C@H](N(Cc2ccccc2)C(=O)c2cc(C3CC3)on2)CC1 [compound 53, N-((1S,4r)-4-((S)-3-aminobutanamido)cyclohexyl)-N-benzyl-5-cyclopropylisoxazole-3-carboxamide]
11.6 µM	C[C@H](N)CC(=O)N[C@H]1CC[C@H](N(CCc2ccccc2)C(=O)c2cc(C3CC3)on2)CC1 [compound 54, N-((1S,4r)-4-((S)-3-aminobutanamido)cyclohexyl)-5-cyclopropyl-N-phenethylisoxazole-3-carboxamide]
24.4 µM	C[C@@H](N)CC(=O)N[C@H]1CC[C@@H](N(C)C(=O)c2cc(C3CC3)on2)CC1 [compound 55, N-((1S,4s)-4-((R)-3-aminobutanamido)cyclohexyl)-5-cyclopropyl-N-methylisoxazole-3-carboxamide]
9.28 µM	C[C@@H](N)CC(=O)N[C@H]1CC[C@H](N(C)C(=O)c2cc(C3CC3)on2)CC1 [compound 56, N-((1R,4r)-4-((R)-3-aminobutanamido)cyclohexyl)-5-cyclopropyl-N-methylisoxazole-3-carboxamide]
25.8 µM	C[C@H](N)CC(=O)N[C@H]1CC[C@@H](N(C)C(=O)c2cc(C3CC3)on2)CC1 [compound 57, N-((1R,4s)-4-((S)-3-aminobutanamido)cyclohexyl)-5-cyclopropyl-N-methylisoxazole-3-carboxamide]
6.11 µM	C[C@H](N)CC(=O)N[C@H]1CC[C@H](N(C)C(=O)c2cc(C3CC3)on2)CC1 [compound 58, N-((1S,4r)-4-((S)-3-aminobutanamido)cyclohexyl)-5-cyclopropyl-N-methylisoxazole-3-carboxamide]
36.6 µM	CN(C(=O)c1cc(C2CC2)on1)[C@H]1CC[C@@H](NC(=O)CCN)CC1 [compound 59, N-((1s,4s)-4-(3-aminopropanamido)cyclohexyl)-5-cyclopropyl-N-methylisoxazole-3-carboxamide]
5.29 µM	CN(C(=O)c1cc(C2CC2)on1)[C@H]1CC[C@H](NC(=O)CCN)CC1 [compound 60, N-((1r,4r)-4-(3-aminopropanamido)cyclohexyl)-5-cyclopropyl-N-methylisoxazole-3-carboxamide]
